Here are results for 2 molecules from patent US9630964B2, “Fluoro-9-methyl-β-carbolines” (priority 2013, dated 2017).

Series [1] has as its system BDNF (brain-derived neurotrophic factor). In words: Quantitative RT-PCR, relative gene expression of BDNF in SH-SY5Y cells. In kind it is cell-based, human. Conditions: 30 μM each. As to the method:
(§1) SH-SY5Y cell lines, which were provided by the institute of human genetics of university hospital Eppendorf and which they in turn received from Braunschweig resource center, were used again for the RT-PCR experiments (reverse transcriptase polymerase chain reaction) carried out for this purpose.
(§2) The cells were incubated in MEM (Minimum essential medium, Life Technologies) with 10% FCS (fetal calf serum, Biochrom AG) and penicillin/streptomycin (Biochrom AG). The cells were seeded with a density of 1×10^5 cells/cm^2 in 25 cm^2 cell culture bottles (Falcon, cell culture treated) with 5 mL medium. Stock solutions of 10 mmol/L of compounds 9-methyl-β-carboline (AC-002 or 9MβC) and 6-fluoro-9-methyl-β-carboline (AC-102 or 6F9MβC), respectively were prepared in distillated water and sterile filtered. One day after the cell seeding the compounds were added in corresponding amounts (5-55 μL) to reach final concentration in the medium of 10 μM, 20 μM and 30 μM for 6F9MβC and 30 μM, 50 μM and 70 μM for 9MβC. The references received only the corresponding amount of solvent (distilled water). The medium was changed once a week.
(§3) The cells were regularly microscopically examined and harvest after 2, 7 and 14 days of incubation time, washed with PBS and immediately frozen at −80° C.
The RNA-isolation was done with the HighPure RNA Isolation kit of the company Roche. […] The concentration of RNA was measured with nanoDrop spectrometer and the RNA integrity was determined with the aid of the Bioanalyzer 2100 (Agilent). […]
After the reaction, this run was diluted 1:4 and thereof 2 μL per each quantitative RT-PCR were used. This was performed in a LightCycler 480 under standard conditions in the SybrGreen format with annealing temperatures determined for each primer individually. […]
The specificity was verified by melting curve analysis and subsequent gel electrophoresis. For each PCR the PCR efficiency and the Cq value was determined by the program LinRegPCR and these were used in further calculations. […] Every measured value from FIGS. 5A-5I represents a mean value of 3 independent biologic samples. […]

Series [2] deals with Lif (Leukemia inhibitory factor). Kind of series: Quantitative RT-PCR, relative gene expression of Lif in SH-SY5Y cells. Type of series: cell-based, human. Conditions: 30 μM each. On the procedure:
as §1, §2, §3
(§4) The RNA-isolation was done with the HighPure RNA Isolation kit of the company Roche. This isolation includes a DNaseI digestion. The concentration of RNA was measured with nanoDrop spectrometer and the RNA integrity was determined with the aid of the Bioanalyzer 2100 (Agilent). By using random hexamer primers, protector RNA inhibitor (Roche) and transcriptor reverse transcriptase (fermentas), 300 ng RNA were transcribed into cDNA per each sample.
(§5) After the reaction, this run was diluted 1:4 and thereof 2 μL per each quantitative RT-PCR were used. This was performed in a LightCycler 480 under standard conditions in the SybrGreen format with annealing temperatures determined for each primer individually. If possible, exon spanning primers were used.
(§6) The specificity was verified by melting curve analysis and subsequent gel electrophoresis. For each PCR the PCR efficiency and the Cq value was determined by the program LinRegPCR and these were used in further calculations. B2M (β2-microglobulin) was identified from multiple reference genes to be suitable for examination conditions. All results are results relative to the corresponding reference conditions, at which only solvent was administered for the specified period of time (i.e. 2 days, 7 days or 14 days). In FIGS. 5A to 5I are also relative gene expressions (relative to reference conditions) presented. Here, the 2-day exposition is presented in light grey, the 7-day exposition in dark grey and the 14-day exposition in black. Every measured value from FIGS. 5A-5I represents a mean value of 3 independent biologic samples.
(§7) Analogous to example 4 RT-PCR experiments with the inventive active agent 7-fluoro-9-methyl-β-carboline (7F9MβC) were also performed for some important cellular factors. The experimental procedure was here identical to the experiments with 6-fluoro-9-methyl-β-carboline and 9-methyl-β-carboline. Here the same (like for 6F9MβC) final concentrations of 30 μM, 50 μM and 70 μM 7F9MβC for the culture medium were employed. The examined factors were BDNF (brain-derived neurotrophic factor), Lif (Leukemia inhibitory factor), DRD2S (short variant of dopamine receptor subtype 2) as well as DKK1 (Dickkopf-related protein 1). The same primers, that were already listed for the respective target genes in example 4 (Tab. 1) were used. As already noted, especially BDNF and Lif belongs to the most important factors for cellurar repair processes after traumas in the inner ear.

Series [3] relates to DRD2S (short variant of dopamine receptor subtype 2). In words: Quantitative RT-PCR, relative gene expression of DRD2S in SH-SY5Y cells. To be noted: 30 μM each. Type of series: cell-based, human. On the procedure: as §1, §2, §3, §4, §5, §6, §7
The test system of series [4] is DKK1 (Dickkopf-related protein 1). In words: Quantitative RT-PCR, relative gene expression of DKK1 in SH-SY5Y cells. Conditions: 30 μM each. Type of series: cell-based, human. On the procedure: as §1, §2, §3, §4, §5, §6
as §7, with “The same primers, that were already listed for the respective target genes in example 4 (Tab. 1) were used. As already noted, especially BDNF and Lif belongs to the most important factors for cellurar repair processes after traumas in the inner ear.” left out

The conditions of series [5]: guinea pig, in vivo.
Method: For better evaluation of half times of 9-methyl-β-carboline (9MβC), 6-fluoro-9-methyl-β-carboline (6F9MβC) and 7-fluoro-9-methyl-β-carboline (7F9MβC) in animal organism and more precisely in perilymph (the notified site of action), experiments with guinea pigs were conducted. Therefore, the respective active agent (in total 1.4 mg active agent per ear), packed in 40 μl of a hydrogel (18% Poloxamer 407 and 0.6% alginate), was administered at once in front of the membrane of the round window of narcotized guinea pigs. […] After expiry of the desired time (20 min, 2 h, 8 h or 24 h), each time 5 μL perilymph were removed under anesthesia from the top of the cochlea (apex). Subsequently, the animal was killed. Per each time (20 min, 2 h, 8 h or 24 h) measured values were taken of at least ears and averaged.
The concentration of the corresponding active agent in perilymph samples was determined by high-performance liquid chromatography (HPLC, partly also named as high-pressure liquid chromatography) and measurement of auto fluorescence of the respective active agent. For HPLC the eluent consisted to 45% of 90% acetonitrile and to 55% of ammonium acetate (40 mM, pH<5). The flow rate was 0.4 mL/min and injection volume was 10 μL. Each sample was diluted with 60% methanol, if the signal was too strong. After each run the injection needle was washed with 100% isopropanol. The detection limit was 20 fmol/L.
From the determined active agent concentrations the elimination half times were then calculated.
The subject of series [6] is human neuroblastoma cells (SH-SY5Y). In words: Differentiation of human neuroblastoma cells (SH-SY5Y), morphological examination. Type of series: cell-based. On the procedure:
The SH-SY5Y cell line was obtained from the German collection of microorganisms and cell cultures—DSMZ, Braunschweig. The cells were cultivated in MEM (Minimum essential medium, Life Technologies) with 10% FCS (fetal calf serum, Biochrom AG) and penicillin/streptomycin (Biochrom AG). For morphological examinations the cells were seeded in a density of 1.5×10^4 cells/cm^2 in 24-well plates (Falcon, cell culture treated) with 1 mL medium. A stock solution of 10 mmol/L of the compound according to the invention 6-fluoro-9-methyl-β-carboline was prepared in 50% ethanol and sterile filtered. Five hours after seeding of the cells the compound according to the invention 6-fluoro-9-methyl-β-carboline was added in the corresponding amount to the medium achieving the desired final concentration. The medium was changed once a week. The cells were regularly microscopically examined. Microscopic images were taken at BZ Keyence 10 with a 10×lens and 4×digital zoom. An automatic contrast enhancement was made with the program BZ Analyzer.

Series [7] concerns outer hair cells (OHC) in the inner ear. In words: Immunohistochemical experiments: dying of outer hair cells after acoustic trauma. Conditions: guinea pig, intratympanic, total 0.2 mg per ear, day 14. Type of series: in vivo. As to the method:
To induce an acoustic trauma, guinea pigs were anesthetized with 60 mg/kg ketamine and 8 mg/kg xylazine. Then Bepanten ointment (Bayer) was administered to the eyes and the animal was put in a soundproof chamber. A calibrated speaker was placed directly above the head of the animal, wherein it was set to emit a half octave band, centered around 8 kHz, with a volume of 110 dB for duration of 30 minutes.
The thermosensitive, liquid mixture was administered under view by a Hamilton syringe directly in front of the round window membrane of the middle ear (10 μL). The first dose 6-fluoro-9-methyl-β-carboline (e.g. 0.07 mg) was administered one hour after the acoustic trauma in a concentration of 0.007 mg/μL and the second dose 6-fluoro-9-methyl-β-carboline (0.035 mg in a volume of 5 μL) on day 3. Here, only one ear per animal was treated, while the second ear served as intra-individual control. The control here is particularly abbreviated to “contr.”. In comparative experiments it was found, that administration of just an active agent vehicle (hydrogel) has no effect in comparison to a fully untreated ear. For each active agent (including the controls) four guinea pigs were examined.
On day 14 after the acoustic trauma the region of the ear was dissected so that it contained the cochlea. […] In this way the sound induced damage can be localized and quantified. […]

Another series has as its system hearing threshold. In words: Acoustically evoked potentials: hearing threshold after acoustic trauma. In kind it is in vivo. To be noted: guinea pig, total 0.35 mg per ear. As to the method:
To trigger an acoustic trauma, guinea pigs were anesthetized with 60 mg/kg ketamine and 8 mg/kg xylazine. Then Bepanten ointment (Bayer) was administered to the eyes and the animal was put in a soundproof chamber. A calibrated speaker was placed directly above the head of the animal, wherein it was set to emit a half octave band, centered around 8 kHz, with a volume of 110 dB for duration of 30 minutes.
As measure for evaluation of the hearing threshold of the guinea pig acoustically evoked potentials were measured. Therefore, the electrophysiological activity of the nerve cells in the brain stem that forward impulses from the inner ear was derived after sonication of the ear with 8, 11.3, 16, 22.6 and 32 kHz. The sonification was carried out ascendingly from 0 dB to 90 dB in single steps of 5 dB.
The measurement was carried out 3 days before the acoustic trauma (D-3), 30 minutes after the acoustic trauma (D0) as well as 14 days after the acoustic trauma (D14).
Per animal one ear was not treated and used as intra-individual control (hierin partly abbreviated to “contr.”) and the second ear was treated with 6-fluoro-9-methyl-β-carboline. Therefore, one hour after the acoustic trauma a dose of 0.12 mg 6-fluoro-9-methyl-β-carboline (in a hydrogel as vehicle) was administered intratympanically. 3 days after the acoustic trauma a further intratympanic administration of 0.06 mg 6-fluoro-9-methyl-β-carboline was carried out. The measurements were conducted on four guinea pigs (n=4).
Afterwards, the remaining shift of hearing threshold (also named as permanent shift of hearing threshold) was determined from the measured values before the acoustic trauma (D-3) and after 14 days (D14). From the measured values directly after the acoustic trauma (D0) and after 14 days (D14) the recovery from the trauma (D0-D14) was also determined.
Analogous to the above performed experiments with 6-fluoro-9-methyl-β-carboline, also corresponding experiments with 9-methyl-β-carboline were performed. The experimental procedure was nearly identical, wherein of course 9-methyl-β-carboline instead of 6-fluoro-9-methyl-β-carboline was used. The total dose of 9-methyl-β-carboline was here 0.2 mg and 0.35 mg per ear, respectively.

A further series in a line: physchem. Conditions: water.

The structures appear in SMILES notation. Converted amounts (≈) assume the structure as drawn.

Method for physchem: Furthermore, the solubility of both compounds in water was determined by preparing concentration series of both compounds in water at room temperature. The concentration at which the compound was barely soluble was determined by external calibration. The corresponding concentration was quantified by HPLC.

Regarding `Cn1c2cnccc2c2ccc(F)cc21` [7F9MβC, 7-fluoro-9-methyl-β-carboline], the “BDNF expression relative to expression induced by 9MβC” value in [1] (2-day exposition) is recorded as “approximately three times higher”; in [1] (longer expositions (7 and 14 days)), “comparable”. Further, the “Lif expression relative to expression induced by 9MβC” value was “approximately three times higher” in series [2] (2-day exposition), “weaker” in series [2] (7-day exposition) and “comparable” in [2] (14-day exposition). The “DRD2S expression relative to expression induced by 9MβC” value in series [3] (2-day exposition) is listed as “twice as high”; in series [3] (7-day exposition), “comparable”; in series [3] (14-day exposition) it was “slightly weaker”. For the same molecule, the “DKK1 expression relative to expression induced by 9MβC” value in series [4] (2-day exposition) is recorded as 1.4 times; in [4] (7-day exposition), “comparable”; in [4] (14-day exposition), 2.2 times. For the same molecule, the elimination half time result in series [5] was “approximately 5.0 h”.

The solubility is the concentration that dissolves in the medium under given conditions. A higher solubility goes with much dissolved substance. As to `Cn1c2ccccc2c2ccncc21` [9MβC, 9-methyl-β-carboline], the “neurite growth as indication of differentiation” value in [6] (50 μM, compared to 30 μM 6-fluoro-9-methyl-β-carboline) is recorded as “too low neurite growth”. The “concentration at which a comparable differentiation of the tested cells is observed” value in series [6] (SH-SY5Y, 15 days incubation) is recorded as “approximately 70 μM”. In series [7], the “acoustic trauma-induced dying of outer hair cells” value is recorded as “could counteract the dying of outer hair cells”. Further, in the series on hearing threshold, the “improvement of the recovery of hearing threshold (D1-D14) vs untreated control” value is reported as “about 10 dB”. In [5], the elimination half time entry is reported as “approximately 3.4 h”. The same molecule gave a solubility in the series “physchem” of 168 µg/mL (≈ 924 µM).
